Source: EP4501920A1, “NOVEL PYRAZOLE DERIVATIVES” (Aptabio Therapeutics Inc., priority 2022, dated 2023)

Experiments:
[1] = system: αSMA; assay: Expression of αSMA induced by TGF-β1 (immunocytochemistry); assay type: cell-based, human; conditions: TGF-β1 (10 ng/ml), 10 µM, FIG. 4
From the text: In order to confirm whether the compounds of Synthetic examples of the present invention affect differentiation of fibroblasts into myofibroblasts, the inhibitory effect of the compounds of Synthetic examples on increase in expression of αSMA (biomarker for confirming differentiation into myofibroblasts) induced by TGF-β1 on HFF-1 (human foreskin fibroblast, ATCC), NHLF (normal human lung fibroblast, Lonza), LX-2 (human hepatic stellate cells, Sigma), ARPE19 (human retinal pigment epithelial cell, ATCC), and KEL-FIB (Keloid fibroblast, ATCC) cells was to be observed.
Each cell was suspended in a DMEM medium containing 10% FBS and aliquoted at a concentration of 1×10^4 to 1.5 × 10 ^5 cells/well in a 4-well chamber slide (Nunc) and the compounds of Synthetic examples and TGF-β1 (both TGF β1 and TGF-β have the same meaning) were treated to prepare cells to be used for confirming αSMA expression. The confirmation of αSMA expression in the prepared cells was performed by immunocytochemistry as follows. For the cells, fixation with 4% paraformaldehyde for 10 minutes and permeabilization using 0.1% Triton x-100 were performed, and then processes of treating the primary antibody (anti-αSMA Ab, 1:200, at 4°C for 16 hours) and secondary antibody (Alexa-594 conjugated Ab, 1:800, at a room temperature for 1 hour) against αSMA were progressed in order, and then the expression level of αSMA was observed using a fluorescence microscope.
FIG. 3 observes the effect of treating various compounds of Synthetic examples by 10, 20 and 40 µM, after inducing αSMA expression by treatment of TGF-β1(10 ng/ml) into HFF cells.

[2] = system: LX-2 (human hepatic stellate cells); assay: ROS production induced by PMA in LX-2 cells; assay type: cell-based; conditions: FIG. 1
From the text: (§1) In order to confirm the effect of the compounds of Synthetic examples on ROS production from fibroblasts and specific substrate cells, ROS production was induced by stimulation of PMA (phorbol 12-myristate 13-acetate), TGF-β1, palmitate or high concentration-glucose, or the like, in HL-60 cells differentiated into neutrophil cells by DMSO treatment, NHLF (normal human lung fibroblast, Lonza), LX-2 (human hepatic stellate cells, Sigma), ARPE19 (human retinal pigment epithelial cell, ATCC), and KEL-FIB (Keloid fibroblast, ATCC) cells, and under this condition, the inhibitory effect of ROS production of the compounds of Synthetic examples was observed.
(§2) The NHLF (normal human lung fibroblast, Lonza), LX-2 (human hepatic stellate cells, Sigma), ARPE19 (human retinal pigment epithelial cell, ATCC), KEL-FIB (keloid fibroblast, ATCC) cells were suspended in a culture medium containing 10% FBS and aliquoted on a 96 well plate and then cultured under the condition of 5% CO2, 37°C for 24 hours. After pre-treating the compounds of Synthetic examples at a concentration of 10, 20, 30, 40, 60 and 80 µM for 30 minutes to 1 hour, the ROS stimulus was treated to each well containing the cells and drug. After additional culturing for 48 hours, the ROS production level was confirmed using L-012 or DCF-DA.

[3] = system: human foreskin fibroblasts (HFF-1, ATCC); assay: Collagen gel contraction induced by TGF-β1; assay type: cell-based; conditions: HFF-1 cells and bovine type I collagen; TGF-β1 (10 ng/ml); 72 hours; FIG. 7
From the text: In order to confirm the effect of the compounds of Synthetic examples on differentiation of fibroblasts into myofibroblasts, the inhibitory effect of the compounds of Synthetic examples on the phenomenon of contraction of gel induced by interaction of human foreskin fibroblasts (HFF-1, ATCC) and collagen was observed.
The mixed solution of the HFF-1 cells and collagen (bovine type I collagen) prepared at a concentration of 3×10^6 cells/ml was aliquoted in a 24 well plate, respectively, and then cultured under the condition of 5% CO2, 37 °C for 1 hour to induce gel polymerization. Then, after suspending the gel attached on the plate from the plate using a spoon, a medium comprising TGF-β1 and Synthetic example compounds was added to each well. After culturing for 72 hours, the Synthetic example compounds were treated by 10, 20, 30, 40, 60 and 80 µM to measure the size of the gel, and thereby, the degree of contraction of the gel by drug treatment was confirmed.

[4] = system: IL-1β; assay: Expression of IL-1β induced by LPS in human-derived fibroblasts (RT-PCR); assay type: cell-based; conditions: LPS (1 µg/ml) 6 hours; 10 µM; FIG. 8 (LX2, NHLF, ARPE19 and KEL-Fib cells)
Protocol: After inoculating 2×10^5 cells in a 6 well plate and then culturing for 24 hours, they were further cultured in a serum-free culture solution for 16 hours and then the Synthetic example 1 Compound was pre-treated for 20 minutes according to each condition and inflammation reaction was induced with LPS (1 µg/ml) for 6 hours. The expression of IL-1β was confirmed using RT-PCR. Total RNA was separated from the cells using RNeasy mini kit (Qiagen), and for the separated RNA 2ug, cDNA was synthesized using PrimeScript™ II 1st strand cDNA synthesis kit (TaKaRa) and then PCR was performed with AccuPower® PCR PreMix (Bioneer) to amplify genes. The nucleotide sequences for target primers are as follows. IL-1β (forward: 5'-[…]-3'(SEQ ID NO: 1), reverse: 5'-[…]-3'(SEQ ID NO: 2)); GAPDH (forward: 5'-[…]-3'(SEQ ID NO: 3), reverse: 5'-[…]-3'(SEQ ID NO: 4)); β-actin (forward: 5'-[…]-3'(SEQ ID NO: 5), reverse: 5'-[…]-3'(SEQ ID NO: 6)). The PCR product was confirmed by electrophoresis in 1.5% agarose gel.

[5] = system: IL-8; assay: Expression of IL-8 in pancreatic cancer associated fibroblasts (ELISA); assay type: cell-based, human; conditions: P.CAF cells; compounds 10, 20, 30, 40, 60 and 80 µM for 48 hours; FIG. 6
Protocol: (§3) In order to confirm the effect of the compounds of Synthetic examples of the present invention on inflammation reaction in cancer associated fibroblasts, whether the expression of IL6 and IL8 was inhibited by the compounds of Synthetic examples in pancreatic cancer associated fibroblasts (PCAF) was observed.
(§4) After inoculating 1.5×10^5 cells in a 6 well plate and then culturing in P.CAF complete media for 48 hours, the compounds of Synthetic examples were treated by 10, 20, 30, 40, 60 and 80 µM for 48 hours according to each condition, and then the expression of IL-6 and IL-8 was confirmed by performing ELISA with Quantkine ELISA kit (R&D systems) as follows.
(§5) 100 µl of the culture solution in which the compounds of Synthetic examples were treated for 48 hours was added to the microplate strip for analysis including a 100 µl assay diluent and left at a room temperature for 2 hours and then the contents were removed, and then it was washed with 400 µl wash buffer 4 times. 200 µl of a human IL-6 or IL-8 conjugate was added and left at a room temperature for 2 hours and then the contents were removed, and then it was washed with 400 µl wash buffer 4 times. 200 µl of substrate solution was added and left at a room temperature for 20 minutes and then 50 µl of stop solution was added, and the absorbance at a wavelength of 450nm was measured within 30 minutes to confirm the expression level of IL-6 and IL-8.

[6] = system: NHLF (normal human lung fibroblast); assay: ROS production induced by PMA in NHLF cells; assay type: cell-based; conditions: FIG. 1
From the text: as §1, §2

[7] = system: IL-6; assay: Expression of IL-6 in pancreatic cancer associated fibroblasts (ELISA); assay type: cell-based, human; conditions: P.CAF cells; compounds 10, 20, 30, 40, 60 and 80 µM for 48 hours; FIG. 5
Protocol: as §3, §4, §5

## CN(Cc1ccccc1)C1CCc2nn(-c3ccccn3)c(O)c2C1 (stereo not shown) [Compound 1, 5-(Benzylmethylamino)-2-(pyridin-2-yl)-4,5,6,7-tetrahydro-2H-indazol-3-ol]
[1]; ARPE19 cells
  increase in expression of αSMA induced by TGF-β1: significantly inhibited
[1]; KEL-FIB cells
  increase in expression of αSMA induced by TGF-β1: significantly inhibited
[1]; LX-2 cells
  increase in expression of αSMA induced by TGF-β1: significantly inhibited
[1]; NHLF cells
  increase in expression of αSMA induced by TGF-β1: significantly inhibited
[2]
  ROS production induced by PMA: inhibited
[3]
  contraction of the gel induced by TGF-β1: effectively inhibited
[4]
  IL-1β induced by LPS: effectively inhibited in a concentration-dependent manner
[5]
  IL-8 expressed in P.CAF: effectively inhibited
[6]
  ROS production induced by PMA: inhibited
[7]
  IL-6 expressed in P.CAF: effectively inhibited
